According to patent publication US6372693B1, “Substituted 2-(3-alkenyl-benzoyl)-cyclohexane-1,3-diones” (BASF Aktiengesellschaft, priority 1997, dated 2002):

Legend:
Assay in all cases: greenhouse herbicidal test, post-emergence treatment
Assay type in all cases: in vivo
[1] = tested on: Chenopodium album; conditions: 0.5 or 0.25 kg/ha a.s., Chenopodium album (lambsquarters)
Description: (§1) The culture containers used were plastic flowerpots containing loamy sand with approximately 3.0% of humus as substrate. The seeds of the test plants were sown separately for each species.
(§2) For the purposes of post-emergence treatment, the test plants were grown to a plant height of from 3 to 15 cm, depending on the plant habit, and only then treated with the active ingredients which had been suspended or emulsified in water. To this end, the test plants were either sown directly and grown in the same containers, or they were first grown separately as seedlings and transplanted into the test containers a few days prior to treatment. The rate of application for the post-emergence treatment was 0.5 or 0.25 kg/ha a.s.
(§3) Depending on the species, the plants were kept at from 10-25° C. and 20-35° C., respectively. The test period extended over 2 to 4 weeks. During this time, the plants were tended, and their response to the individual treatments was evaluated.
(§4) Evaluation was carried out using a scale of from 0 to 100. 100 means no emergence of the plants, or complete destruction of at least the aerial parts, and 0 means no damage or normal course of growth.
(§5) The plants used in the greenhouse experiments belonged to the following species: […]

[2] = tested on: Polygonum persicaria; conditions: 0.5 or 0.25 kg/ha a.s., Polygonum persicaria (ladysthumb)
Description: as §1, §2, §3, §4, §5

[3] = tested on: Sinapis alba; conditions: 0.5 or 0.25 kg/ha a.s., Sinapis alba (white mustard)
Description: as §1, §2, §3, §4, §5

[4] = tested on: Solanum nigrum; conditions: 0.5 or 0.25 kg/ha a.s., Solanum nigrum (black nightshade)
Description: as §1, §2, §3, §4, §5

Measured: herbicidal action (control of the weed)

CC=Cc1c(Cl)ccc(C(=O)C2C(=O)CCCC2=O)c1Cl [Compound 2.1, 2-[2′,4′-Dichloro-3′-(prop-1″-en-1″-yl)benzoyl]-1,3-cyclo-hexanedione]
very good control: all assays above
